These results are taken from paper PMC9254122, “Structural control of self-assembled peptide nanostructures to develop peptide vesicles for photodynamic therapy of cancer” (Materials Today Bio, 2022).

For series [1], the system named is SCC7 tumor-bearing mice. Put plainly: In vivo antitumor (photodynamic) efficacy. Set-up: species or system mouse. As to conditions: end of therapy (14 days). How it is done: The SCC7 tumor-bearing mouse models were prepared similarly to the in vivo imaging experiment, and each sample was prepared in the same way as in the in vivo IVIS imaging experiments. The samples were intravenously injected into the mice when the tumor volume reached approximately 50 mm^3. Three hours postinjection of the samples, NIR laser (671 nm) irradiation was administered to the tumor site with a power of 0.53 W/cm^2 for 15 min, and the same sample injection and NIR irradiation procedures were repeated at the next day. The tumor volume and body weight were recorded every two days. At the end of the therapy, major organs and tumors were dissected for histological analysis. They were fixed, sliced, stained with haematoxylin and eosin (H&E), and observed with a microscope (AxioImager A1, Zeiss, Germany).

Series [2] concerns SCC7 cells. Nature of the series: Photodynamic killing of cancer cells (PDT effect), MTT assay. The series is classed as cell-based. The following applies: 24 h treatment, IR laser 671 nm at 1.59 J/cm^2, peptidesome fabricated in DW. Here is the method: Having controlled the nano- and biostructural properties of the peptidesomes in terms of intracellular delivery efficiency and cytotoxicity, we then evaluated their tumoricidal photodynamic effects in tissue culture. Squamous cell carcinoma 7 (SCC7) cells were treated with free Pa or the peptidesome←Pa for 24 h, followed by infrared (IR) laser irradiation (671 nm) at 1.59 J/cm^2. Cytotoxicity as a measure of the photodynamic killing of cancer cells was determined using the MTT assay. […] To probe the reason behind this negative result, the amount of single oxygen (SO) generated was quantified after the incubation of both groups in cell culture medium (with serum). The amount of SO was far higher for free Pa than for peptidesome←Pa, which accounts for the results of the PDT assay (Fig. 4b). It has been shown that the aggregation of porphyrin derivatives reduced SO generation and negatively affected PDT efficacy. […] The aggregation would have been more severe in cell culture medium containing serum. Taken together, the nonspecific aggregation of the peptidesome←Pa is likely responsible for the reduced SO generation and the lack of PDT effect. The morphology of peptidesome before and after NIR irradiation was also monitored by AFM (Fig. S12). […]
Background: Tetrazolium assays rely on reduction of a dye to a coloured formazan, in cell work by metabolically active cells.

For series [3] the following is noted: stated without reference; cited from earlier work. From the text: As stated in Lipinski's rule of five, most small molecule drugs are lipophilic overall. Pheophorbide a (Pa), a small molecule drug used in this study, is also hydrophobic with a low water solubility of approximately 0.014 g/L. Pa is a porphyrin derivative of plant chlorophyll and has been used as a photosensitizer for photodynamic therapy (PDT). For noncovalent drug loading in R6 peptidesome, R6 and Pa were mixed in DW, and the solution was sonicated vigorously. After this drug loading process, the R6 peptidesomes underwent a morphological transformation into elongated supe ...

A short description of series [4]: Quantification of singlet oxygen with Singlet Oxygen Sensor Green (SOSG). The following applies: RPMI 1640 medium with 10% foetal bovine serum, IR laser irradiation. Here is the method:
Fig. 4 Nonspecific aggregation of peptidesomes under physiological conditions. (a) PDT effect in SCC7 cells. (b) Quantification of singlet oxygen with Singlet Oxygen Sensor Green (SOSG). The samples were dissolved in RPMI 1640 medium containing 10% foetal bovine serum, and IR laser irradiation was performed for the indicated times. (c) AFM image of the peptidesome←Pa in RPMI 1640 medium (without the serum). R6:RGD2 = 1:9.

Series [5] has as its system SCC7 cells. Nature of the series: In vitro cellular uptake, CLSM and flow cytometry. The series is classed as cell-based. As to conditions: 4 h treatment, flow cytometry of Pa fluorescence. How it is done:
Cellular uptake of materials in SCC7 cells was analyzed based on the intrinsic fluorescence of Pa via CLSM (LSM700, Carl Zeiss, Germany) and flow cytometry (FACS Canto II, BD Biosciences, Bedford, MA, USA). SCC7 cells were seeded in 24-well plates at a density of 5 × 10^4 and incubated overnight. Then, 200 μL of the sample in an appropriate solution was added to 800 μL of complete medium for each well. The cells were treated with the samples for 4 h followed by the removal of the sample solution and the washing step. For cell imaging, nuclei were also stained with Hoechst 33,342.
(In flow cytometry, cells or beads pass a laser one at a time.)

The subject of series [6] is cells. Nature of the series: Cytotoxicity of peptidesomes. It is filed as cell-based. As to conditions: single-component peptidesomes (Fig. 3a).

Turning to `C=Cc1c(C)c2cc3nc(c4c5[nH]c(cc6nc(cc1[nH]2)C(C)=C6CC)c(C)c5C(=O)[C@@H]4C(=O)OC)[C@@H](CCC(=O)O)[C@@H]3C` [Pa, Pheophorbide a], the “excised tumor weight, times larger than peptidesome←Pa (G&G)-treated group” value in series [1] is given as “approximately 3 times”. Besides, in series [1] (n = 4), the “weight of the excised tumor” value turned out to be 1222 mg. The “PDT effect (cytotoxicity, MTT)” value in series [2] was “strong dose-dependent PDT effect”. Further, the water solubility result in series [3] is recorded as “approximately 0.014 g/L”. The “amount of singlet oxygen (SO) generated, free Pa versus peptidesome←Pa” value in series [4] is “far higher”. Also, the “cell internalization efficiency relative to peptidesome←Pa” value in series [5] amounted to 5 fold.
With `CCCCCCCCCCCC(=O)N[C@H]1CCCCNC(=O)[C@H](Cc2c[nH]c3ccccc23)NC(=O)CCC(=O)NCCOCCOCCNC(=O)[C@H](CCCNC(=N)N)NC(=O)[C@H](CCCNC(=N)N)NC(=O)[C@H](CCCNC(=N)N)NC(=O)[C@H](CCCNC(=N)N)NC(=O)[C@H](CCCNC(=N)N)NC(=O)[C@H](CCCNC(=N)N)NC(=O)CCC(=O)NCCOCCOCCNC(=O)[C@H](Cc2c[nH]c3ccccc23)NC1=O` [R6], the Cytotoxicity of peptidesomes result in series [6] is recorded as “highly toxic”.
